According to article PMC9886975, “Ligand recognition mechanism of the human relaxin family peptide receptor 4 (RXFP4)” (Nature Communications, 2023):

Columns and labels:
Format in all cases: cell-based
RXFP4 R208A = target: T1, RXFP4 R208A (Homo sapiens, UniProt Q8TDU9, R208A); assay: cAMP accumulation, RXFP4 R208A; conditions: HEK293T
T1 construct: RXFP4(1-374)-; expressed in transfected cells; host or cells: HEK293T, transient (pCMV6)
From the text: (§1) The full-length human RXFP4 (NCBI Reference Sequence: NM_181885.3) was cloned into a modified pFastBac vector (Invitrogen) with HA signal peptide to enhance receptor expression, followed by a 10× histidine tag and BRIL insertion at the N terminus. LgBiT subunit (Promega) was fused at the C terminus of RXFP4 connected by a 15-amino acid polypeptide linker. […] The engineered human Gαi2, Gβ1, bovine Gγ2, and scFv16 were cloned into the pFastBac vector (Invitrogen), respectively. For cAMP accumulation assay, human RXFP4 and RXFP3 (NCBI Reference Sequence: NM_016568.3) were cloned into pCMV6 constructs (OriGene Technologies). The mutant receptors were modified by site-directed mutagenesis in the setting of the WT constructs, with the primers designed by QuikChange Primer Design [QuickChange Primer Design (http://agilent.com.cn)] and carried out using Phanta Max Master (Vazyme). N-terminal Flag tag was added to both WT and mutant receptors for surface expression measurement. […]
(§2) CHO-K1 (ATCC, Cat#CCL-61) cells stably expressing human RXFP4 (hRXFP4-CHO) or RXFP3 (hRXFP3-CHO) were maintained in DMEM/F12 (Gibco) supplemented with 10% (v/v) fetal bovine serum (FBS) and 2 mM L-glutamine. […] Following 24 h culturing, the transfected cells were ready for detection.
(§3) Ligands were verified for their bioactivity in the beginning in hRXFP4-CHO, which were ready for use after 24 h culturing. […] The time-resolved fluorescence resonance energy transfer (TR-FRET) signals were detected by an EnVision multilabel plate reader (PerkinElmer) with the emission window ratio of 665 nm over 620 nm under 320 nm excitation. […]
(§4) Inhibition of forskolin-induced cAMP accumulation was performed in HEK293T cells transiently transfected with WT and mutant receptors. All the mutant constructs were modified by single-point mutation in the setting of the WT receptor. cAMP accumulation data were analyzed using a three-parameter logistic equation to determine pEC50 and Emax values. Emax values for mutants are defined as the window between the maximal response and vehicle control (no ligand) and expressed as a percentage of the WT. […]

RXFP4 R208K = RXFP4 R208K (Homo sapiens, UniProt Q8TDU9, R208K); assay: cAMP accumulation, RXFP4 R208K; conditions: HEK293T
From the text: as §1, §2, §3, §4

RXFP4 D104A = target: T2, RXFP4 D104A (Homo sapiens, UniProt Q8TDU9, D104A); assay: cAMP accumulation, RXFP4 D104A
T2 construct: RXFP4(1-374)-; expressed in transfected cells; host or cells: HEK293T, transient (pCMV6)
From the text: (§5) The full-length human RXFP4 (NCBI Reference Sequence: NM_181885.3) was cloned into a modified pFastBac vector (Invitrogen) with HA signal peptide to enhance receptor expression, followed by a 10× histidine tag and BRIL insertion at the N terminus. LgBiT subunit (Promega) was fused at the C terminus of RXFP4 connected by a 15-amino acid polypeptide linker. […] The engineered human Gαi2, Gβ1, bovine Gγ2, and scFv16 were cloned into the pFastBac vector (Invitrogen), respectively. For cAMP accumulation assay, human RXFP4 and RXFP3 (NCBI Reference Sequence: NM_016568.3) were cloned into pCMV6 constructs (OriGene Technologies). […]
as §2, §3

RXFP4 Q205A = target: T3, RXFP4 Q205A (Homo sapiens, UniProt Q8TDU9, Q205A); assay: cAMP accumulation, RXFP4 Q205A
T3 construct: RXFP4(1-374)-; expressed in transfected cells; host or cells: HEK293T, transient (pCMV6)
From the text: as §5, §2, §3

RXFP4 L118A = target: T4, RXFP4 L118A (Homo sapiens, UniProt Q8TDU9, L118A); assay: cAMP accumulation, RXFP4 L118A; conditions: HEK293T
T4 construct: RXFP4(1-374)-; expressed in transfected cells; host or cells: HEK293T, transient (pCMV6)
From the text: as §5, §2, §3

RXFP4 V122A = target: T5, RXFP4 V122A (Homo sapiens, UniProt Q8TDU9, V122A); assay: cAMP accumulation, RXFP4 V122A; conditions: HEK293T, mean ± S.E.M.
T5 construct: RXFP4(1-374)-; expressed in transfected cells; host or cells: HEK293T, transient (pCMV6)
From the text: as §5, §2, §3

RXFP4 Y284A = target: T6, RXFP4 Y284A (Homo sapiens, UniProt Q8TDU9, Y284A); assay: cAMP accumulation, RXFP4 Y284A
T6 construct: RXFP4(1-374)-; expressed in transfected cells; host or cells: HEK293T, transient (pCMV6)
From the text: as §5, §2, §3

T1 sequence (Q8TDU9 whole entry R208A): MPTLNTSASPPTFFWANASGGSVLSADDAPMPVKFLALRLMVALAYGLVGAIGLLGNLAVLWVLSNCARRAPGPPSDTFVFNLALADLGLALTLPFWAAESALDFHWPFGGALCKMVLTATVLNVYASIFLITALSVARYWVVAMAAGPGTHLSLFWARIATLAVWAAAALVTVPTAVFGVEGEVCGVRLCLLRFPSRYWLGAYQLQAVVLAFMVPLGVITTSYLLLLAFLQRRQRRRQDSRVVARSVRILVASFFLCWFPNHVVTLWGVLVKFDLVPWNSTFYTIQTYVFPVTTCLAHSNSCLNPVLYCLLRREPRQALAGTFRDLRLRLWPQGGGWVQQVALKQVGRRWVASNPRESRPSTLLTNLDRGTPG
Chain of RXFP4 R208K (Q8TDU9 whole entry R208K): as the sequence (Q8TDU9 whole entry R208A) above, with A208K counted along it
T5 sequence (Q8TDU9 whole entry V122A): as the sequence (Q8TDU9 whole entry R208A) above, with V122A, A208R counted along it
T3 sequence (Q8TDU9 whole entry Q205A): as the sequence (Q8TDU9 whole entry R208A) above, with Q205A, A208R counted along it
T6 sequence (Q8TDU9 whole entry Y284A): as the sequence (Q8TDU9 whole entry R208A) above, with A208R, Y284A counted along it
T2 sequence (Q8TDU9 whole entry D104A): as the sequence (Q8TDU9 whole entry R208A) above, with D104A, A208R counted along it
T4 sequence (Q8TDU9 whole entry L118A): as the sequence (Q8TDU9 whole entry R208A) above, with L118A, A208R counted along it

For `CCOc1cc2c(cc1OC)CCN(C(=O)N1CCOCC1)[C@H]2CCc1c[nH]c2ccc(OC)cc12` [DC591053, (S)-(7-ethoxy-6-methoxy-1-(2-(5-methoxy-1H-indol-3-yl)ethyl)−3,4-dihydroisoquinolin-2(1H)-yl)(morpholino)methanone], the “decrease of potency vs WT” value (RXFP4 R208A) was 7.6 fold, the EC50 (RXFP4 R208A; 1.5 μM forskolin, mean ± S.E.M., n = 3, N.A., not active) was 263 nM and the Emax (RXFP4 R208A; mean ± S.E.M.) was 52.09 ± 4.26 % WT. The “response” value (RXFP4 R208K) was “more profound reduction for DC591053 than compound 4”, the EC50 (RXFP4 R208K; 1.5 μM forskolin, mean ± S.E.M., n = 3) was 204 nM and the Emax (RXFP4 R208K; mean ± S.E.M.) was 60.43 ± 6.52 % WT.

`CC[C@H](C)[C@@H]1NC(=O)[C@H](Cc2ccc(O)cc2)NC(=O)[C@H]([C@@H](C)CC)NC(=O)[C@H](C(C)C)NC(=O)[C@H]([C@@H](C)O)NC(=O)[C@H](CCCNC(=N)N)NC(=O)[C@H]([C@@H](C)CC)NC(=O)[C@H](Cc2ccc(O)cc2)NC(=O)[C@H](CCC(=O)O)NC(=O)[C@H](CC(C)C)NC(=O)CNC(=O)[C@@H](NC(=O)[C@H](CC(C)C)NC(=O)[C@H](CCCNC(=N)N)NC(=O)[C@@H](NC(=O)[C@H](CO)NC(=O)[C@H](CCC(=O)O)NC(=O)[C@@H](N)CCCCN)C(C)C)CSSC[C@@H]2NC(=O)[C@@H](NC(=O)[C@H](CC(C)C)NC(=O)[C@@H](NC(=O)[C@H](CCC(N)=O)NC(=O)[C@H](CC(C)C)NC(=O)[C@H](CC(=O)O)NC(=O)[C@@H](N)CCC(N)=O)[C@@H](C)O)CSSC[C@H](NC(=O)CNC(=O)[C@H](CC(=O)O)NC(=O)[C@H]([C@@H](C)O)NC2=O)C(=O)N[C@@H](CO)C(=O)N[C@@H](CCSC)C(=O)N[C@@H]([C@@H](C)O)C(=O)N[C@@H](CC(=O)O)C(=O)N[C@@H](CC(C)C)C(=O)N[C@@H](CO)C(=O)N[C@@H](C)C(=O)N[C@@H](CC(C)C)C(=O)N[C@H](C(=O)O)CSSC[C@@H](C(=O)N[C@@H](C)C(=O)N[C@@H](CO)C(=O)N[C@@H](CO)C(=O)N[C@@H](CCCNC(=N)N)C(=O)N[C@@H](Cc2c[nH]c3ccccc23)C(=O)O)NC1=O` [INSL5, insulin-like peptide 5] was tested, and the EC50 (RXFP4 D104A) was 1.62 nM, the Emax (RXFP4 D104A; HEK293T, mean ± S.E.M.) was 59.09 ± 6.41 % WT and the EC50 (RXFP4 Q205A) was 3.98 nM. For the same molecule, the Emax (RXFP4 Q205A; HEK293T, mean ± S.E.M.) was 50.94 ± 6.54 % WT, the “response” value (RXFP4 L118A) was “inactive” and the EC50 (RXFP4 V122A; 1.5 μM forskolin, n = 3) was 3.63 nM. For the same molecule, the Emax (RXFP4 V122A) was 33.20 ± 3.27 % WT, the EC50 (RXFP4 Y284A) was 1.82 nM and the Emax (RXFP4 Y284A; HEK293T, mean ± S.E.M.) was 49.25 ± 4.06 % WT.
